Columns and labels:
Human granulosa cells [1] = test: Estrone production by cultured human granulosa cells with androstenedione as substrate (ELISA/RIA); assay type: cell-based; details: 3 μM androstenedione
Method: (§1) Human granulosa cells were obtained during in vitro fertilization over the course of 18 months and were pooled from several patients at a time to ensure adequate cell number for the experiments. The diagnoses included male factor, tubal factor and uterine factor infertility, endometriosis and anovulation. […] La Jolla, Calif.). Estrone and estradiol concentrations in the tissue culture medium were measured using enzyme-linked immuno-sorbent assay (ELISA) (Alpco Diagnostics, Salem, N.H.) or radioimmunoassay (RIA) (Diagnostic Systems Laboratories, Webster, Tex.). […] The statistical interactions between the sets of data obtained with or without rosiglitazone or pioglitazone and with or without aromatase inhibitor I were examined. Pairwise Bonferroni-adjusted contrasts were used to determine statistical significance. […] Adjustments were made for initial inhibition of estradiol or estrone production induced by rosiglitazone or pioglitazone in the absence of insulin, with or without aromatase inhibitor I.

Human granulosa cells [2] = test: Estradiol production by cultured human granulosa cells with testosterone as substrate (ELISA/RIA); assay type: cell-based; details: 3 μM testosterone; for reduction of the inhibitory effect on insulin-induced estradiol production: in the presence of aromatase inhibitor I and insulin, FIG. 2A vs FIG. 2C
Method: as §1

aromatase mRNA = test: RT-PCR analysis of aromatase mRNA expression in granulosa cells; assay type: cell-based, human; details: androstenedione or testosterone as substrate
[3] = system: aromatase enzyme (protein) expression; test: Aromatase enzyme expression by immunoprecipitation and immunoblotting in granulosa cells; assay type: cell-based, human; details: androstenedione or testosterone as substrate; for effect on aromatase enzyme expression: 25 μM, absence or presence of insulin, vs control
Method: La Jolla, Calif.). […] Cambridge, Mass.) were added to 1 ml of cell lysate. […] The lysate was centrifuged at 6,000 rpm for 3 min and the supernatant was transferred into another micro-centrifuge tube. […] Metab. 92: 2232-2239, 2007, which is incorporated herein by reference. The mixture was incubated for 3-4 h at 4° C. After Protein A-agarose was added, the mixture was incubated again overnight at 4° C. The immunoprecipitate complexes were collected by centrifugation and washed. The samples were then resuspended in 2× Laemmli buffer (BioRad, Hercules, Calif.) supplemented with 1 mM DTT (Cleland's reagent, 1, 4-dithiothreitol, threo-1, 4-dimercapto-2, 3-butanediol, Roche Inc, Indianapolis, Ind.). […] The bands were detected by chemiluminescence (Pierce, Rockford, Ill.). For the analysis of the expression of aromatase, NIH Scion Imaging program was used to evaluate integrated band intensity.

aromatase enzyme [4] = target: T1, aromatase enzyme (Homo sapiens, UniProt P11511); test: 125I-androstenedione binding to immunoprecipitated aromatase enzyme; details: for inhibition at 25 µM: 1 μM androstenedione, vs control
T1 construct: The aromatase enzyme was immunoprecipitated as described above; endogenous in cells; host or cells: primary granulosa cells (human), lysate immunoprecipitated with anti-human aromatase antibody and Protein A-agarose
T1 sequence (P11511 1-503): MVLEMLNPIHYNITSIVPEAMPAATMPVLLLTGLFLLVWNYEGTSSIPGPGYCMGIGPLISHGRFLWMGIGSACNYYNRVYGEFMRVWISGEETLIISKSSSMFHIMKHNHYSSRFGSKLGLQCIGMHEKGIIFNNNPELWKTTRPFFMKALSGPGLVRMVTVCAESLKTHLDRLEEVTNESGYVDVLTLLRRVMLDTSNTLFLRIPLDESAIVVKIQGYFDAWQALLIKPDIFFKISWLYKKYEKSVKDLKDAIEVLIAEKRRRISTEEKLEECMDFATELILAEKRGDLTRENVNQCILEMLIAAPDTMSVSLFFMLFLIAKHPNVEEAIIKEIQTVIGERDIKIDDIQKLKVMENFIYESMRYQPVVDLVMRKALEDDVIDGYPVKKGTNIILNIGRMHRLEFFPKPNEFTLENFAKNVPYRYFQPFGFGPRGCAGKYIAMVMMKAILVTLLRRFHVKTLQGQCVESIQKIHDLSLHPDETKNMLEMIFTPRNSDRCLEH
Method: (§2) Rabbit polyclonal anti-human aromatase antibodies (1.4 μg) (Abcam, Inc. Cambridge, Mass.) were added to 1 ml of cell lysate. The lysate buffer contained 20 mM Tris-HCl (pH 7.4), 150 mM NaCl, 1 mM CaCl2, 1 mM MgCl2, 1 mM Na orthovanadate, 1% NP40, 1 mM AEBSF (4-2-aminoethyl-benzenesulfonyfluoride, hydrochloride), 0.8 μM aprotinin, 50 μM bestain, 15 μM E-64, 20 μM leupeptin, 10 μM pepstatin A, 1 mM phenylmethylsulfonyl fluoride and 10 μg/ml trypsin inhibitor. The lysate was centrifuged at 6,000 rpm for 3 min and the supernatant was transferred into another micro-centrifuge tube. […] Metab. 92: 2232-2239, 2007, which is incorporated herein by reference. The mixture was incubated for 3-4 h at 4° C. After Protein A-agarose was added, the mixture was incubated again overnight at 4° C. The immunoprecipitate complexes were collected by centrifugation and washed. The samples were then resuspended in 2× Laemmli buffer (BioRad, Hercules, Calif.) supplemented with 1 mM DTT (Cleland's reagent, 1, 4-dithiothreitol, threo-1, 4-dimercapto-2, 3-butanediol, Roche Inc, Indianapolis, Ind.). […] The bands were detected by chemiluminescence (Pierce, Rockford, Ill.). For the analysis of the expression of aromatase, NIH Scion Imaging program was used to evaluate integrated band intensity.
(§3) The aromatase enzyme was immunoprecipitated as described above. Purified aromatase bound to Protein A-agarose was added to 250 μl of solution containing the final concentration of 1 μM testosterone (2 μCi of [125I]/m1 testosterone with the specific radioactivity of 857 μCi/nmol) or androstenedione (3.5 μCi of [125I]/ml androstenedione with the specific radioactivity of 430 μCi/nmol), with insulin (0, 10, 10^2, 10^3 ng/ml) and with or without 25 μM rosiglitazone or pioglitazone. The mixture was incubated at room temperature for 30 min and then centrifuged at 6000 rpm for 3 min. The pellets were washed two times with 400 μl Dulbecco's phosphate saline. The bound testosterone or androstenedione, expressed as % of total testosterone or androstenedione, was measured in Wizard gamma counter.

aromatase enzyme [5] = target: T1, aromatase enzyme; test: 125I-testosterone binding to immunoprecipitated aromatase enzyme; details: for inhibition at 25 µM: 1 μM testosterone, vs control
Method: as §2, §3

[6] = in the presence of aromatase inhibitor I
[7] = 25 μM TZD, presence of insulin, absence of aromatase inhibitor I, vs control without TZD
[8] = 25 μM, absence or presence of insulin, vs control
[9] = insulin, absence of aromatase inhibitor I, vs baseline

Row | Molecule | inhibition of estrone production (Human granulosa cells [1]; aromatase inhibitor 100 to 200 nM) [%] | inhibition of estradiol production (Human granulosa cells [2]; [6]) [%] | insulin-induced stimulation of estradiol production (Human granulosa cells [2]; [6]) | inhibition of estrone production (Human granulosa cells [1]; [7]) [%] | inhibition of estradiol production (Human granulosa cells [2]; [7]) [%] | reduction of the inhibitory effect on insulin-induced estradiol production (Human granulosa cells [2]) [%] | effect on aromatase mRNA (aromatase mRNA; [8]) | effect on aromatase enzyme expression [3] | inhibition at 25 µM (aromatase enzyme [4]) [%] | inhibition at 25 µM (aromatase enzyme [5]) [%] | stimulation of estrone production (Human granulosa cells [1]; [9]) [%] | stimulation of estradiol production (Human granulosa cells [2]; [9]) [%] | effect on aromatase mRNA (aromatase mRNA; insulin alone) | effect on aromatase enzyme (protein) expression ([3]; insulin alone) | effect on the binding of androstenedione to aromatase (aromatase enzyme [4]; insulin alone) | effect on the binding of testosterone to aromatase (aromatase enzyme [5]; insulin alone)
1 | 4-(imidazolylmethyl)-1-nitro-9H-9-xanthenone [aromatase inhibitor I] | 55 | 72 | completely abolished | – | – | – | – | – | – | – | – | – | – | – | – | –
2 | CCc1ccc(CCOc2ccc(CC3SC(=O)NC3=O)cc2)nc1 (centres unmarked) [pioglitazone] | – | – | – | 22 | 34 | 62 | no significant effect | no significant effect | 20 | 32 | – | – | – | – | – | –
3 | CN(CCOc1ccc(CC2SC(=O)NC2=O)cc1)c1ccccn1 (centres unmarked) [rosiglitazone] | – | – | – | 22 | 34 | 62 | no significant effect | no significant effect | 20 | 38 | – | – | – | – | – | –
4 | insulin: insulin added to granulosa cell culture (0-10^4 ng/ml) | – | – | – | – | – | – | – | – | – | – | 114 | 124 | no effect | did not affect | no effect | no effect

— patent publication US20120264786A1, “USE OF THIAZOLIDINEDIONES FOR THE PARTIAL INHIBITION OF ANDROGEN BINDING TO AROMATASE” (priority 2008, published 2012)
